Measured values as given in US11497752B2, “Compounds and uses thereof” (Foghorn Therapeutics Inc., priority 2018, dated 2022).

Experiments:
[1] = molecular target: BRG-1 (Homo sapiens, UniProt P51532); experiment: ATPase catalytic activity of BRG-1 (ADP-Glo in vitro biochemical assay); conditions: for BRG1 Max % Inhibition: Table 6
[2] = molecular target: BRM (Homo sapiens, UniProt P51531); experiment: ATPase catalytic activity of BRM (ADP-Glo in vitro biochemical assay); conditions: for BRM Max % Inhibition: Table 6
Sequence of BRM (P51531 whole entry): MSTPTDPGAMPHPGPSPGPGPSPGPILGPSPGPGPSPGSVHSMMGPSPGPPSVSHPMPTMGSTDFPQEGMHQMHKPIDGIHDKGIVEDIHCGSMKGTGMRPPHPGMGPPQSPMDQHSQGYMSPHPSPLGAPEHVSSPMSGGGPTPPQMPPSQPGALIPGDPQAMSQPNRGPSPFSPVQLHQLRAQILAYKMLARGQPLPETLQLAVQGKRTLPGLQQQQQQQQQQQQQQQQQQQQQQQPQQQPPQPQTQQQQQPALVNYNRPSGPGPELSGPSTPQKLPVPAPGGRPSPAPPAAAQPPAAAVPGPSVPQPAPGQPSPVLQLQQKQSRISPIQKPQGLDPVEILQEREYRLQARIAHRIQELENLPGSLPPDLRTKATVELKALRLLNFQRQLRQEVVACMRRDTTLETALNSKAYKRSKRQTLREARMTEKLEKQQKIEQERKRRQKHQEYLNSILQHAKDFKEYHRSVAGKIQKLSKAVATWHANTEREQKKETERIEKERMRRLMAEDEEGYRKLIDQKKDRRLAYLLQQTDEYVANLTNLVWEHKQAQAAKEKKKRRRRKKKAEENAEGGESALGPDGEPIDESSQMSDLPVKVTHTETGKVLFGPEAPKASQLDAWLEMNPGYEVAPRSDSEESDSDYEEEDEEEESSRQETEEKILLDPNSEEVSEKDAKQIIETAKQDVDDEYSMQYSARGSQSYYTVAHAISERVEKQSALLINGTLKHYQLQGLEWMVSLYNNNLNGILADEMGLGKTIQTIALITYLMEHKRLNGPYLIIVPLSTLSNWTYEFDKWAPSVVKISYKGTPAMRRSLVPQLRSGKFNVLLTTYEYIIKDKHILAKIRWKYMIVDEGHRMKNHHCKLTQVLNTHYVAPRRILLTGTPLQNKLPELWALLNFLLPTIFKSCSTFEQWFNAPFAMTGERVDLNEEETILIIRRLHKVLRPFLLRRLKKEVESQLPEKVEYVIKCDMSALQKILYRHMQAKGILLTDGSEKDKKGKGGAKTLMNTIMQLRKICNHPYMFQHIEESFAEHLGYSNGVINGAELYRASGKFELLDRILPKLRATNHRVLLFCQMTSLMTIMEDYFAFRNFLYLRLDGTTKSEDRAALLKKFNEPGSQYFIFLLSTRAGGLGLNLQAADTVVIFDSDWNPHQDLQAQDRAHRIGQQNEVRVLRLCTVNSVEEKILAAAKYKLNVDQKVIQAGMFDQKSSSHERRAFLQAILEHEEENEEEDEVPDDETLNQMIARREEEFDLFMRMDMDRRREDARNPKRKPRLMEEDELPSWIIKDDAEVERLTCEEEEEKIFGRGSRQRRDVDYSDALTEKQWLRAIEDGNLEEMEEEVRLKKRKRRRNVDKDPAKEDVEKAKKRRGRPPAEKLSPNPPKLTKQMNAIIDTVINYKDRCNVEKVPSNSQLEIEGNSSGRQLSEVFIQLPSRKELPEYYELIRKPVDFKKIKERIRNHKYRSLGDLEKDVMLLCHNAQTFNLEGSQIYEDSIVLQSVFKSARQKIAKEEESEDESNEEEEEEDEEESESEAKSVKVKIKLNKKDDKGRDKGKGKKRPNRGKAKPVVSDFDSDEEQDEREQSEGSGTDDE

Sequence of BRG-1 (P51532 whole entry): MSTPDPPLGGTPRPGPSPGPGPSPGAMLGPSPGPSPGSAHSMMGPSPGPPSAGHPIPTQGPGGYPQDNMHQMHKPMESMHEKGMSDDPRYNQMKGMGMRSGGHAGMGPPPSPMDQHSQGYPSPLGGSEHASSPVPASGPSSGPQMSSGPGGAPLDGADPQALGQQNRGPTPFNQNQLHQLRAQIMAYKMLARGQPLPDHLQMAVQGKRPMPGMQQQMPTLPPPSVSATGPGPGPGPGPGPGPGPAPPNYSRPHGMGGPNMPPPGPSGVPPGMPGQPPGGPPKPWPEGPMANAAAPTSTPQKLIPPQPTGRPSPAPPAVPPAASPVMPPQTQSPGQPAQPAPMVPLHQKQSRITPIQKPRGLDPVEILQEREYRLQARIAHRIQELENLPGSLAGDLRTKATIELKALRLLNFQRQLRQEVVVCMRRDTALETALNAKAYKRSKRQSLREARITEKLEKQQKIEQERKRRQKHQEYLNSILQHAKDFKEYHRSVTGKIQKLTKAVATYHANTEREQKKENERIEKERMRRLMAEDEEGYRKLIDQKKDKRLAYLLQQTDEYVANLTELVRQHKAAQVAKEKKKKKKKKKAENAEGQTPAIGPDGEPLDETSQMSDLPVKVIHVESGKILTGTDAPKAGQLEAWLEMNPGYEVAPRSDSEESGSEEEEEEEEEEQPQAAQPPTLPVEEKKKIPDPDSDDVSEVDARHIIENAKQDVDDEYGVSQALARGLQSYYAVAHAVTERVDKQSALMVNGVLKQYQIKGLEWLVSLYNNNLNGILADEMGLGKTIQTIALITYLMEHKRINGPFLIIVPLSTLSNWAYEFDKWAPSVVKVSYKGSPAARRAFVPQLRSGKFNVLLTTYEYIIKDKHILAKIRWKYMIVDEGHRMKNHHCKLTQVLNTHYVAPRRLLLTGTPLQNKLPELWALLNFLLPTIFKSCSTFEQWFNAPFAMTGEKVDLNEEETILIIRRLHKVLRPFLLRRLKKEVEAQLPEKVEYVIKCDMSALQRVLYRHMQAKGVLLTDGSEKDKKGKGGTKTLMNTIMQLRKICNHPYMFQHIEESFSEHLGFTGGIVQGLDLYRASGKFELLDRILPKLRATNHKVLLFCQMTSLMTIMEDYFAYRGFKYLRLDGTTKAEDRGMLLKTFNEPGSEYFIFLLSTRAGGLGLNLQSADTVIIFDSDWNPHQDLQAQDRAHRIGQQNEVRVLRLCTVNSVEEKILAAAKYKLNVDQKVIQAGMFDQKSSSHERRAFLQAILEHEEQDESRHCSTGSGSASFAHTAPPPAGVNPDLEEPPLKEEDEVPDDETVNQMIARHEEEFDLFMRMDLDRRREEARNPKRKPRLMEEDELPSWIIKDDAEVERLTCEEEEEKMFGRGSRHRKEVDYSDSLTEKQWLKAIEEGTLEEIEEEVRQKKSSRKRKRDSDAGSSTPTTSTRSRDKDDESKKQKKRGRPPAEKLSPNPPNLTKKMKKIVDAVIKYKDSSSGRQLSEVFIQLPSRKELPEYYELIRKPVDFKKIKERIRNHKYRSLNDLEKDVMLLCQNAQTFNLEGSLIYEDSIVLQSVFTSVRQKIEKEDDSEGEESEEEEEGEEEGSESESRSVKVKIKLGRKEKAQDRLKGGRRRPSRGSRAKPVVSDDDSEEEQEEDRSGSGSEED

Compound | IC50 [1] | BRG1 Max % Inhibition [1] | IC50 [2] | BRM Max % Inhibition [2]
COc1ccc(-c2cccc(-c3csc(NC(=O)CNC(=O)c4ccc(N)cc4)n3)c2)cn1 [Compound 127, 4-amino-N-(2-((4-(3-(6-methoxypyridin-3-yl)phenyl)thiazol-2-yl)amino)-2-oxoethyl)benzamide] | 100 to 1000 nM | >80% | 100 to 1000 nM | >90%
CSCC[C@H](NC(=O)c1ccc(N)cc1)C(=O)Nc1nc(-c2cccc(-c3nnco3)c2)cs1 [Compound 128, (S)-N-(1-((4-(3-(1,3,4-oxadiazol-2-yl)phenyl)thiazol-2-yl)amino)-4-(methylthio)-1-oxobutan-2-yl)-4-aminobenzamide] | < 100 nM | >95% | < 100 nM | >95%
CNC(=O)c1ccc(-c2cccc(-c3csc(NC(=O)CNC(=O)c4ccc(N)cc4)n3)c2)cc1 [Compound 130, 3′-(2-(2-(4-aminobenzamido)acetamido)thiazol-4-yl)-N-methyl-[1,1′-biphenyl]-4-carboxamide] | 1000 to 10000 nM | >70% | 100 to 1000 nM | >70%
CN(C)c1ccc(C(=O)NCC(=O)Nc2nc(-c3cccc(-c4ccncc4)c3)cs2)cc1 [Compound 132, 4-(dimethylamino)-N-(2-oxo-2-((4-(3-(pyridin-4-yl)phenyl)thiazol-2-yl)amino)ethyl)benzamide] | < 100 nM | >70% | < 100 nM | >80%
Nc1ccc(C(=O)NCC(=O)Nc2nc(-c3cccc(-c4ccnc(N)c4)c3)cs2)cc1 [Compound 133, 4-amino-N-(2-((4-(3-(2-aminopyridin-4-yl)phenyl)thiazol-2-yl)amino)-2-oxoethyl)benzamide] | < 100 nM | >95% | < 100 nM | >95%
CS(=O)(=O)c1ccc(-c2cccc(-c3csc(NC(=O)CNC(=O)c4ccc(N)cc4)n3)c2)cc1 [Compound 134, 4-amino-N-(2-((4-(4′-(methylsulfonyl)-[1,1′-biphenyl]-3-yl)thiazol-2-yl)amino)-2-oxoethyl)benzamide] | 100 to 1000 nM | >50% | 100 to 1000 nM | >50%
Nc1ccc(C(=O)NCC(=O)Nc2nc(-c3cccc(-c4ccc(O)cc4)c3)cs2)cc1 [Compound 139, 4-amino-N-(2-((4-(4′-hydroxy-[1,1′-biphenyl]-3-yl)thiazol-2-yl)amino)-2-oxoethyl)benzamide] | < 100 nM | >95% | < 100 nM | >95%
Cn1ccc(-c2cccc(-c3csc(NC(=O)CNC(=O)c4ccc(N)cc4)n3)c2)cc1=O [Compound 140, 4-amino-N-(2-((4-(3-(1-methyl-2-oxo-1,2-dihydropyridin-4-yl)phenyl)thiazol-2-yl)amino)-2-oxoethyl)benzamide] | 100 to 1000 nM | >90% | 100 to 1000 nM | >95%
Nc1ccc(C(=O)NCC(=O)Nc2nc(-c3cccc(-c4ccccc4F)c3)cs2)cc1 [Compound 142, 4-amino-N-(2-((4-(2′-fluoro-[1,1′-biphenyl]-3-yl)thiazol-2-yl)\amino)-2-oxoethyl)benzamide] | 100 to 1000 nM | >90% | 100 to 1000 nM | >90%
Cn1ccc2ccc(-c3csc(NC(=O)CNC(=O)c4ccc(N)cc4)n3)cc2c1=O [Compound 143, 4-amino-N-(2-((4-(2-methyl-1-oxo-1,2-dihydroisoquinolin-7-yl)thiazol-2-yl)amino)-2-oxoethyl)benzamide] | < 100 nM | >95% | < 100 nM | >95%

Second part, the compound after the results:

IC50 [1] | BRG1 Max % Inhibition [1] | IC50 [2] | BRM Max % Inhibition [2] | Compound
100 to 1000 nM | >95% | 100 to 1000 nM | >95% | CC(=O)N(C)Cc1cccc(-c2cccc(-c3csc(NC(=O)CNC(=O)c4ccc(N)cc4)n3)c2)c1 [Compound 129, 4-amino-N-(2-((4-(3′-((N-methylacetamido)methyl)-[1,1′-biphenyl]-3-yl)thiazol-2-yl)amino)-2-oxoethyl)benzamide]
< 100 nM | >95% | < 100 nM | >95% | CN(C)C(=O)c1cccc(-c2cccc(-c3csc(NC(=O)CNC(=O)c4ccc(N)cc4)n3)c2)c1 [Compound 131, 3′-(2-(2-(4-aminobenzamido)acetamido)thiazol-4-yl)-N,N-dimethyl-[1,1′-biphenyl]-3-carboxamide]
< 100 nM | >95% | < 100 nM | >95% | NCc1cccc(-c2cccc(-c3csc(NC(=O)CNC(=O)c4ccc(N)cc4)n3)c2)c1 [Compound 135, 4-amino-N-(2-((4-(3′-(aminomethyl)-[1,1′-biphenyl]-3-yl)thiazol-2-yl)amino)-2-oxoethyl)benzamide]
100 to 1000 nM | >95% | 100 to 1000 nM | >95% | Nc1ccc(C(=O)NCC(=O)Nc2nc(-c3cccc(-c4cccc(C(=O)O)c4)c3)cs2)cc1 [Compound 136, 3′-(2-(2-(4-aminobenzamido)acetamido)thiazol-4-yl)-[1,1′-biphenyl]-3-carboxylic acid]
100 to 1000 nM | >95% | 100 to 1000 nM | >90% | CN(C)C(=O)c1ccc(-c2cccc(-c3csc(NC(=O)CNC(=O)c4ccc(N)cc4)n3)c2)cc1 [Compound 137, 3′-(2-(2-(4-aminobenzamido)acetamido)thiazol-4-yl)-N,N-dimethyl-[1,1′-biphenyl]-4-carboxamide]
100 to 1000 nM | >90% | 100 to 1000 nM | >90% | CC(=O)N(C)Cc1ccc(-c2cccc(-c3csc(NC(=O)CNC(=O)c4ccc(N)cc4)n3)c2)cc1 [Compound 138, 4-amino-N-(2-((4-(4′-((N-methylacetamido)methyl)-[1,1′-biphenyl]-3-yl)thiazol-2-yl)amino)-2-oxoethyl)benzamide]
100 to 1000 nM | >95% | < 100 nM | >95% | Nc1ccc(C(=O)NCC(=O)Nc2nc(-c3cccc(-c4cccc(O)c4)c3)cs2)cc1 [Compound 141, 4-amino-N-(2-((4-(3′-hydroxy-[1,1′-biphenyl]-3-yl)thiazol-2-yl)amino)-2-oxoethyl)benzamide]
100 to 1000 nM | >95% | 100 to 1000 nM | >95% | CNC(=O)c1cccc(-c2cccc(-c3csc(NC(=O)CNC(=O)c4ccc(N)cc4)n3)c2)c1 [Compound 144, 3-[3-[2-[[2-[(4-aminobenzoyl)amino]acetyl]amino]thiazol-4-yl]phenyl]-N-methyl-benzamide]
100 to 1000 nM | >90% | 100 to 1000 nM | >90% | CN(C)Cc1ccc(-c2cccc(-c3csc(NC(=O)CNC(=O)c4ccc(N)cc4)n3)c2)cc1 [Compound 145, 4-amino-N-(2-((4-(4′-((dimethylamino)methyl)-[1,1′-biphenyl]-3-yl)thiazol-2-yl)amino)-2-oxoethyl)benzamide]
